We go through three compounds from patent publication US20160022751A1, “NOVEL COMPOSITION FOR TREATING ALZHEIMER'S DISEASE AND IMPROVING COGNITIVE FUNCTION OF ALZHEIMER'S PATIENTS” (GANGNEUNG-WONJU NATIONAL UNIVERSITY INDUSTRY ACADEMY …, priority 2014, published 2016).

For experiment [1], the system named is N2a cells. Put plainly: Morphological analysis of N2a cells (optical microscopy). In kind it is cell-based, mouse. As to conditions: untreated cells mostly rounded (FIG. 9C). The procedure:
Followed by the RT-PCR analysis, the present inventor investigated whether ginsenosides Re and Rd induce the expression of MAP-2 and p75 and the differentiation of neurons actually, via immunocytochemistry and morphological analysis using optical microscopic observation.
Specifically, Cultured N2a cells were fixed in 4% paraformaldehyde (in PBS) for 15 min, washed twice with PBS supplemented with 100 mM glycine for 5 min, and incubated with permeabilization buffer consisting of 0.1% Triton X-100 (Sigma-Aldrich, USA) in PBS for 30 min at room temperature. Blocking was performed with 1% bovine serum albumin (BSA, Sigma-Aldrich, USA) for 30 min at room temperature. Then Microtubule-Associated Protein-2 (MAP-2) or VAChT mouse monoclonal antibody 1:200 (Santa Cruz Biotechnology, USA) was added to 1% BSA in PBS with Tween 20 (PBST) and incubated for 2 h at room temperature. Cells were then washed three times with PBS before fluorescein isothiocyanate (FITC)-conjugated anti-mouse immunoglobulin G (IgG) 1:200 (Cell Signaling Technology, USA) was added to 1% BSA for 1 h at room temperature. The cells were rinsed and counterstained with 4,6-diamidino-2-phenylindole (DAPI, Sigma-Aldrich) for 10 min, followed by two PBS washes. […]

For experiment [2], the system named is acetylcholine. Description: Acetylcholine content in culture medium of N2a cells (assay kit). The settings on record: culture medium of N2a cells, 1, 2.5 and 5 μg/ml, 48 h (FIG. 7F). Format: cell-based, mouse. The protocol: Further, the present inventor measured contents of acetylcholine in culture medium of N2a cells treated with Rd and/or […] (1, 2.5 and 5 μg/ml) for 48 h using a commercial acetylcholine assay kit (Cell Biolabs, USA), based on the enzyme driven reaction that will detect acetylcholine via acetylcholine esterase enzyme and choline oxidase according to the manufacturer's instruction (FIG. 7F).

In experiment [3] the test system is CHT1. Put plainly: CHT1 expression in N2a cells. In kind it is cell-based, mouse. The settings on record: N2a cells (FIG. 7E). The protocol:
Specifically, total RNA extracts from N2a cells were prepared using the Trizol method (Invitrogen, USA) and cDNA was synthesized from RNA by reverse transcription of 1 μg of total RNA using a reverse transcription system (Improm-II, Promega, USA) and oligo dT primers in a total volume of 20 μL. PCR amplification was performed using the primers described in Table 2 (Bioneer, Korea). Quantitative real-time PCR reactions were run on a Rotor-Gene 6000 (Corbett Research, Australia) using SensiMix™ SYBR Hi-ROX Kit (Bioline, U.K.) in 20 μL reaction mixtures. Each real-time-PCR master mix contained 10 μL 2× enzyme master mix, 7.0 μL RNase free water, 1 μL of each primer (10 pM each), and 1 μL diluted template. The PCR was performed with an initial pre-incubation step for 15 min at 95° C., followed by 45 cycles of 95° C. for 15 s, annealing at 52° C. for 15 s, and extension at 72° C. for 10 s. Melting curve analysis was used to confirm formation of the expected PCR product, and products from all assays were additionally tested with 1.2% agarose gel electrophoresis to confirm the correct lengths. […] Relative sample expression levels were calculated using Rotor-Gene 6000 Series Software 1.7, and were expressed relative to β-actin and corrected for between-run variability. Data for the experimental samples were expressed as a fold unit the internal control gene. […]

Experiment [4] has as its system ERK. Description: ERK phosphorylation in N2a cells (western blot). Format: cell-based, mouse. As to conditions: compared with NGF (FIG. 10). The source says: The cholinergic marker ChAT and VAChT are known activate the ERK and Akt lower level path for cholinergic gene expression (Williams et al., Neurosci. Lett., 413: 110-114, 2007; Madziar et al., J. Neurochem., 107: 1284-1293, 2007) by controlling the NGF-TrkA signaling pathway. Thus, the present inventor investigated whether ginsenosides Rd and Re regulate activity of ERK and Akt in N2a cells using through western blot analysis. Specifically, N2a cells were lysed in 1% radioimmunoprecipitation assay (RIPA) buffer containing protease and phosphatase inhibitors (Roche, Mannheim, Germany) and whole cell lysates were separated by 10% sodium dodecyl sulfate polyacrylamide gel electrophoresis (SDS-PAGE). After electrophoresis, proteins were transferred onto polyvinylidene fluoride (PVDF) membranes and the membranes were blocked with 5% skim milk in Tris-buffered saline solution containing 0.1% Tween-20. The membrane was then immunoblotted with primary antibodies, anti-phospho-Akt, anti-phospho-extracellular signal-regulated protein kinase (ERK), anti-ChAT and anti-f3-actin (Santa Cruz Biotechnology, Santa Cruz, USA), and this was followed by incubation with horseradish peroxidase-conjugated anti-rabbit or anti-mouse secondary antibodies (Stressgen, USA). Blots were developed using an enhanced chemiluminescence (ECL) solution (Thermo, USA).
(In general: Immunoblotting shows a protein as a band on a membrane.)

The test system of experiment [5] is caveolin1. Put plainly: Caveolin1 immunocytochemistry in HMO6 cells. In kind it is cell-based, human. The settings on record: Rg3 5 μg/ml, 24 h, immunocytochemistry (FIG. 20). The protocol:
FIG. 20 is a fluorescence microscopic image showing a result of immunocytochemical analysis investigating the expression of caveolin and clathrin in HMO6 cells treated with or without Rg3. HMO6 cells were treated with Rg3 (5 μg/ml) for 24 h after plated on chamber slides and then the cells were stained with primary antibodies binding specifically to caveolin and clathrin, respectively and counterstained with DAPI. The length of scale bar represents 10 μm.
The present inventors investigated whether ginsenosides can induce the expression of SRA, clathrin, caveolin 1, NEP or IDE and the differentiation of neurons actually through immunocytochemical analysis (ICC) and microscopic observations. Specifically, Cultured HMO6 cells were fixed in 4% paraformaldehyde (in 1×PBS) for 15 min, washed twice with 1×PBS supplemented with 100 mM glycine for 5 min, and incubated with permeabilization buffer consisting of 0.1% Triton X-100 (Sigma-Aldrich, USA) in 1×PBS for 30 min at room temperature. Blocking was performed with 1% bovine serum albumin (BSA, Sigma-Aldrich, USA) for 30 min at room temperature. Then, SRA, clathrin, caveolin1, NEP, or IDE mouse monoclonal antibody (1:200; Santa Cruz Biotechnology, USA) was added to 1% BSA in PBS with Tween 20 (PBST) and incubated for 2 h at room temperature. […]

For `CC(C)=CCC[C@](C)(O[C@@H]1O[C@H](CO)[C@@H](O)[C@H](O)[C@H]1O)[C@H]1CC[C@]2(C)[C@@H]1[C@H](O)C[C@@H]1[C@@]3(C)CC[C@H](O[C@@H]4O[C@H](CO)[C@@H](O)[C@H](O)[C@H]4O[C@@H]4O[C@H](CO)[C@@H](O)[C@H](O)[C@H]4O)C(C)(C)[C@@H]3CC[C@]12C` [ginsenoside Rd], the “morphological changes of N2a cells” value in experiment [1] is recorded as “induced the production of distinctive multiple projections”. Moreover, in experiment [2], the acetylcholine production result is “increased significantly”. Also, the “expression of CHT1” value in experiment [3] is listed as “increased”. Besides, the “ERK activation (phosphorylation)” value in experiment [4] was “could activate ERK and Akt with phosphorylation as much as NGF”.

For the compound `CC(C)=CCC[C@](C)(O)[C@H]1CC[C@]2(C)[C@@H]1[C@H](O)C[C@@H]1[C@@]3(C)CC[C@H](O[C@@H]4O[C@H](CO)[C@@H](O)[C@H](O)[C@H]4O[C@@H]4O[C@H](CO)[C@@H](O)[C@H](O)[C@H]4O)C(C)(C)[C@@H]3CC[C@]12C` [ginsenoside Rg3], in experiment [5], the caveolin1 expression result is given as “highly expressed”.

On to `CC(C)=CCC[C@](C)(O[C@@H]1O[C@H](CO)[C@@H](O)[C@H](O)[C@H]1O)[C@H]1CC[C@]2(C)[C@@H]1[C@H](O)C[C@@H]1[C@@]3(C)CC[C@H](O)C(C)(C)[C@@H]3[C@@H](O[C@@H]3O[C@H](CO)[C@@H](O)[C@H](O)[C@H]3O[C@@H]3O[C@@H](C)[C@H](O)[C@@H](O)[C@H]3O)C[C@]12C` [ginsenoside Re], for which the “morphological changes of N2a cells” value in experiment [1] was “induced the production of distinctive multiple projections”. Besides, the acetylcholine production entry in experiment [2] was “increased significantly”. Besides, in experiment [3], the “expression of CHT1” value is on record as “increased”. In addition, the “ERK activation (phosphorylation)” value in experiment [4] is “could activate ERK and Akt with phosphorylation as much as NGF”.
